Test results from patent publication US20150087627A1, “COMBINATION OF KINASE INHIBITORS AND USES THEREOF” (Intellikine LLC, priority 2011, published 2015).

How the values were obtained:
Type in all cases: biochemical
PI3K α (p110α/p85α) = molecular target: T1, PI3K α (p110α/p85α) (Homo sapiens, UniProt P42336); experiment: PI 3-Kinase (human) HTRF assay, PI3K α; settings: read-out: PI3K α IC50
T1 construct: purchased Upstate / Millipore Corporation

PI3K β (p110β/p85α) = molecular target: T2, PI3K β (p110β/p85α) (Homo sapiens, UniProt P42338); experiment: PI 3-Kinase (human) HTRF assay, PI3K β; settings: read-out: PI3K β IC50
T2 construct: purchased Upstate / Millipore Corporation
T2 sequence (P42338 whole entry): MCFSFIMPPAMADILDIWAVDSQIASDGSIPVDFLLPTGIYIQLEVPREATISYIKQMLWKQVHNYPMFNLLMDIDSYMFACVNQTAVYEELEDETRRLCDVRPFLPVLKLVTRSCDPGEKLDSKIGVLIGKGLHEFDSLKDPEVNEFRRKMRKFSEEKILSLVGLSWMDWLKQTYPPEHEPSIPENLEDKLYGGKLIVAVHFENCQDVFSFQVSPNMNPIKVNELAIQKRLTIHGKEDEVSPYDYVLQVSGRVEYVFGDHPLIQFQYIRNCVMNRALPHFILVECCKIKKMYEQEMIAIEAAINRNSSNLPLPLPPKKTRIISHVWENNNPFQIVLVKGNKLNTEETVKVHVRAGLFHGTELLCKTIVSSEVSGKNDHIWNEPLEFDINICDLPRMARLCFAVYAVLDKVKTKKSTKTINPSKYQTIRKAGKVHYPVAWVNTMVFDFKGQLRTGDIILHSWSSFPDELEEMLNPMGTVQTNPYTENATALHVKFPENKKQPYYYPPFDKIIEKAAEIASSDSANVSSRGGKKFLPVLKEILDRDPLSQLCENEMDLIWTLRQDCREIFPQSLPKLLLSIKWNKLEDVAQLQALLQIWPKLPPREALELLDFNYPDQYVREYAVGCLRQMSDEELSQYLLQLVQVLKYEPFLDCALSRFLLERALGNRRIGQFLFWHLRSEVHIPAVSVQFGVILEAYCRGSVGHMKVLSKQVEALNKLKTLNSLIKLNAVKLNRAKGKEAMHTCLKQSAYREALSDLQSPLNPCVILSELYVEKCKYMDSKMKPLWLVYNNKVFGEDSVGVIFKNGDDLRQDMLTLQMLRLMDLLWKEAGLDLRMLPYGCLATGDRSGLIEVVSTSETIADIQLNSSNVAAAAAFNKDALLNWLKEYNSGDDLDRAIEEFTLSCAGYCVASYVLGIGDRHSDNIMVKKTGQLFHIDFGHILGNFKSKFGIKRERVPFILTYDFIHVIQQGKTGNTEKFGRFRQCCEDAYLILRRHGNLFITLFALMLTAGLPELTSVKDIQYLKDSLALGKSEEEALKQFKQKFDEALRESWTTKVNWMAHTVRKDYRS
T2 sequence (P27986 whole entry partner): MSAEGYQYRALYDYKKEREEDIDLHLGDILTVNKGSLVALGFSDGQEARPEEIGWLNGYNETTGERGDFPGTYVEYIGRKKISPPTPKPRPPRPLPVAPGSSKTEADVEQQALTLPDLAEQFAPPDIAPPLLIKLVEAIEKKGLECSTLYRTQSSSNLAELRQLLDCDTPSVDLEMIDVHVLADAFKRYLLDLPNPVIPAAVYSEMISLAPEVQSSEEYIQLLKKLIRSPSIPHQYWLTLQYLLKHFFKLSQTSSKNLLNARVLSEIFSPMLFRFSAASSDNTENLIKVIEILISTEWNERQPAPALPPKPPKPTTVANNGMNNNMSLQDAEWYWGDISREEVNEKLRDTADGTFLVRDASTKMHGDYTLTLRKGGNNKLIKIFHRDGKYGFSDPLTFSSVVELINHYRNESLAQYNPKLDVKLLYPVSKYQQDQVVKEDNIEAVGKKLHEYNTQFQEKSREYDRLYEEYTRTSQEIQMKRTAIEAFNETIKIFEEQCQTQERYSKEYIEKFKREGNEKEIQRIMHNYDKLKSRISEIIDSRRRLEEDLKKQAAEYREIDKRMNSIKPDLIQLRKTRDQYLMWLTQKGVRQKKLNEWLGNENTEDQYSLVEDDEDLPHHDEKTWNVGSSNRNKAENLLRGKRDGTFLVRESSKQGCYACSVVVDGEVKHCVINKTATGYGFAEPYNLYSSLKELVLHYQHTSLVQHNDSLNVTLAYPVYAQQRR

PI3K γ (p110γ) = molecular target: T3, PI3K γ (p110γ) (Homo sapiens, UniProt P48736); experiment: PI 3-Kinase (human) HTRF assay, PI3K γ; settings: read-out: PI3K γ IC50
T3 construct: purchased Upstate / Millipore Corporation
T3 sequence (P48736 whole entry): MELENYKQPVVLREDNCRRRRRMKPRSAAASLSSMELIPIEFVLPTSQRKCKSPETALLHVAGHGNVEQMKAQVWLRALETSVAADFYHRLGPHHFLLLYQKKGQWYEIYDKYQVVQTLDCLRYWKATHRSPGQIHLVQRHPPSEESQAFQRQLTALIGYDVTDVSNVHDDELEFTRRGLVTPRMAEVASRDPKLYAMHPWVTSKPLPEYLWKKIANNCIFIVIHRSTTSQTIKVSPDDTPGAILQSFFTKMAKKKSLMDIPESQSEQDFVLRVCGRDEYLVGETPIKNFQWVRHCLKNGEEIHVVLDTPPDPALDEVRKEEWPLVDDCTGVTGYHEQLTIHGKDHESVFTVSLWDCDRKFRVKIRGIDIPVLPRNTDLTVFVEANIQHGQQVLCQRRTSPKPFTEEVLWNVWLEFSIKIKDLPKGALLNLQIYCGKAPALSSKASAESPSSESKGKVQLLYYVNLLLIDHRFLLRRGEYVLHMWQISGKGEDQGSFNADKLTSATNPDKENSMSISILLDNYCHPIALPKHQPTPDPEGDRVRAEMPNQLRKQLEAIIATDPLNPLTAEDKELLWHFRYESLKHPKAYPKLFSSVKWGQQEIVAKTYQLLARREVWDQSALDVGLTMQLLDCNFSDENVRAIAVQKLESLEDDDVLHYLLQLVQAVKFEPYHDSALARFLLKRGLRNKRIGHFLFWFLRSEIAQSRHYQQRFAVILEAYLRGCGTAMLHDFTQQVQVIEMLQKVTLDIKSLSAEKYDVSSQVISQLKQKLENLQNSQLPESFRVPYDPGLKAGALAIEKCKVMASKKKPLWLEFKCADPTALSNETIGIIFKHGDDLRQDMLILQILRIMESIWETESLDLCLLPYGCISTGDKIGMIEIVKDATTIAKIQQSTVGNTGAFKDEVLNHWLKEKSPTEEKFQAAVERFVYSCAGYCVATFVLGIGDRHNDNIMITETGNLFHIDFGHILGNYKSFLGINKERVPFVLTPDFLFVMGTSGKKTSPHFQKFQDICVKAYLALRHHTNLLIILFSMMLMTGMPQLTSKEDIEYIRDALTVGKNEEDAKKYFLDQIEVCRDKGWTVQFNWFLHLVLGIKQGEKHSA

PI3K δ = molecular target: T4, PI3K δ (Homo sapiens, UniProt O00329); experiment: PI 3-Kinase (human) HTRF assay, PI3K δ; settings: read-out: PI3K δ IC50
T4 construct: purchased Upstate / Millipore Corporation
T4 sequence (O00329 whole entry): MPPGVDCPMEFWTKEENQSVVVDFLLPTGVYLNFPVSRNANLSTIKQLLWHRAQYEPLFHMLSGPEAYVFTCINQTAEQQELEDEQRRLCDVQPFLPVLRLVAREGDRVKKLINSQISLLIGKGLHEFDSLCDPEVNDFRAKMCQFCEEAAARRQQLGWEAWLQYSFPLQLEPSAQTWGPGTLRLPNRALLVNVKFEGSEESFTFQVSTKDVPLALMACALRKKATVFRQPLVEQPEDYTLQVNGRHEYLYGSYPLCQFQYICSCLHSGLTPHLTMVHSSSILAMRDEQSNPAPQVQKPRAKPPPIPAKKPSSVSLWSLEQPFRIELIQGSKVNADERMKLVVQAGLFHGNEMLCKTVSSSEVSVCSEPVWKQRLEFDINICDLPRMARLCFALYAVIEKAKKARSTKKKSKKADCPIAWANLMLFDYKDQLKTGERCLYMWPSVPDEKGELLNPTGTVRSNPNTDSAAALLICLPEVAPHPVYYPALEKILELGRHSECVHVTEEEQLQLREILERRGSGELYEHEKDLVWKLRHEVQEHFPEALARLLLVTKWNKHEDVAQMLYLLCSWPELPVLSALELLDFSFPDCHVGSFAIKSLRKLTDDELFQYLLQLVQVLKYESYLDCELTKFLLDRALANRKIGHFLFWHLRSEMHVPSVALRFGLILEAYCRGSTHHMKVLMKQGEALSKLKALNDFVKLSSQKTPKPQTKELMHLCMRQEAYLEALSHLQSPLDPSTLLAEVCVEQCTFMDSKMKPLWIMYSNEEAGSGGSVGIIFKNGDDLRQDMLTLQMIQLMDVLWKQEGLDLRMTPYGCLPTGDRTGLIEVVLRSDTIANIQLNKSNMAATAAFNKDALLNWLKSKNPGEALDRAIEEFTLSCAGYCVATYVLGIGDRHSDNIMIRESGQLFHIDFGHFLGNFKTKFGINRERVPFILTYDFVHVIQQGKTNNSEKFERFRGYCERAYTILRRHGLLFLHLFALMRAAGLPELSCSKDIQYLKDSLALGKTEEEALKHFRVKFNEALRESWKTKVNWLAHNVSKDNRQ
T4 sequence (P27986 whole entry partner): as the sequence (P27986 whole entry partner) above

T1 sequence (P42336 whole entry): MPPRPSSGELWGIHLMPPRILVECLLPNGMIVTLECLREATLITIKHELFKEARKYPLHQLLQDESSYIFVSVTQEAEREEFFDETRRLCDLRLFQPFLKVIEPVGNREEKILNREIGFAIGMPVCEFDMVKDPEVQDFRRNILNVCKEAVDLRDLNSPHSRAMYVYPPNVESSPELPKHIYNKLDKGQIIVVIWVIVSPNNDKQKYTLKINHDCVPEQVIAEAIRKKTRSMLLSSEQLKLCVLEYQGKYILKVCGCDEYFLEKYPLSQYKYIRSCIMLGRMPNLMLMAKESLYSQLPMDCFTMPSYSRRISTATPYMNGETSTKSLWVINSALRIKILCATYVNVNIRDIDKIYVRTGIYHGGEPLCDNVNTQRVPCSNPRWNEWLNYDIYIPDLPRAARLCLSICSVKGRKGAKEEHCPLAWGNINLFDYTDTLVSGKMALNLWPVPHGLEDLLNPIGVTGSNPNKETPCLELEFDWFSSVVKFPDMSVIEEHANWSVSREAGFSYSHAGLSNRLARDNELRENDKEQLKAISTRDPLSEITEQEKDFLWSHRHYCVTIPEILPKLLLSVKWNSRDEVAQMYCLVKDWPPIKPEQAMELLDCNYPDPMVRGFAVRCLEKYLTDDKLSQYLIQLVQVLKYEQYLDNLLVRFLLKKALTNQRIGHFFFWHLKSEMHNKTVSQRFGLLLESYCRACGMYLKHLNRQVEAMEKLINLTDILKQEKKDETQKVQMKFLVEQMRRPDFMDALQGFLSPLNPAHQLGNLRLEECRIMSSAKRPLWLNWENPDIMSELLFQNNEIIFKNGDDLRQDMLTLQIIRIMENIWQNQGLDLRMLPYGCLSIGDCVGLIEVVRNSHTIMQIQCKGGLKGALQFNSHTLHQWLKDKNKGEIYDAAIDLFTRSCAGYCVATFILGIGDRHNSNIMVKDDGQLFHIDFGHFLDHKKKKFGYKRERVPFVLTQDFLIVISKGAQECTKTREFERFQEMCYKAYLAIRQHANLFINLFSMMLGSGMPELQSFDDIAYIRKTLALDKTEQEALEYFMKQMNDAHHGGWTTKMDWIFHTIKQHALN
T1 sequence (P27986 whole entry partner): as the sequence (P27986 whole entry partner) above

| IC50 (PI3K α (p110α/p85α)) | IC50 (PI3K β (p110β/p85α)) | IC50 (PI3K γ (p110γ)) | IC50 (PI3K δ) | Structure (SMILES) |
| --- | --- | --- | --- | --- |
| < 10 µM | > 10 µM | > 10 µM | > 10 µM | Nc1nc2nc(-c3ccc4ncc(C(=O)N5CCOCC5)n4c3)ccc2o1 [Compound 412] |
| < 0.1 µM | < 10 µM | < 1 µM | < 10 µM | COc1ncc(-c2ccc3ncc(C(=O)N4CCOCC4)n3c2)cc1NS(C)(=O)=O [Compound 416] |
| < 0.1 µM | > 10 µM | < 1 µM | < 1 µM | COc1ncc(-c2ccc3ncc(C(=O)N4CCOCC4)n3c2)cc1NS(=O)(=O)c1ccccc1 [Compound 420] |
| < 0.1 µM | < 10 µM | < 0.1 µM | < 1 µM | COc1ncc(-c2ccc3ncc(C(=O)N4CCOCC4)n3c2)cc1NS(=O)(=O)c1ccccc1F [Compound 422] |
| < 1 µM | > 10 µM | < 1 µM | < 10 µM | O=C(c1cnc2ccc(-c3cncc(NS(=O)(=O)c4ccccc4)c3)cn12)N1CCOCC1 [Compound 424] |
| < 0.1 µM | > 10 µM | < 0.1 µM | < 1 µM | O=C(c1cnc2ccc(-c3cncc(NS(=O)(=O)c4ccc(F)cc4F)c3)cn12)N1CCOCC1 [Compound 425] |
| > 10 µM | > 10 µM | > 10 µM | > 10 µM | CC(=O)n1nc(N)c2ccc(-c3ccc4oc(N)nc4c3)cc21 [Compound 426] |
| < 10 µM | < 10 µM | < 1 µM | > 10 µM | Nc1nc2cc(-c3ccc4c(N)n[nH]c4c3)ccc2o1 [Compound 428] |
| < 10 µM | < 1 µM | < 0.1 µM | > 10 µM | Nc1nc2cc(-c3cc(F)c4oc(N)nc4c3)ccc2o1 [Compound 432] |
| < 10 µM | < 10 µM | < 0.1 µM | > 10 µM | CC(=O)Nc1nc2cc(-c3cc(F)c4oc(N)nc4c3)ccc2s1 [Compound 435] |
| < 10 µM | < 1 µM | < 1 µM | > 10 µM | Nc1nc2cc(-c3ccc4sc(N)nc4c3)cc(F)c2o1 [Compound 437] |
| < 10 µM | > 10 µM | > 10 µM | > 10 µM | Nc1nc2ccc(-c3cc(F)c4ncc(C(=O)N5CCOCC5)n4c3)cc2o1 [Compound 439] |
| < 1 µM | > 10 µM | > 10 µM | > 10 µM | CN1CCN(n2cnc3ccc(-c4ccc5oc(N)nc5c4)cc3c2=O)CC1 [Compound 446] |
| < 1 µM | > 10 µM | < 10 µM | > 10 µM | Cc1cc(-c2ccc3oc(N)nc3c2)cn2c(C(=O)N3CCOCC3)cnc12 [Compound 448] |
| < 1 µM | < 1 µM | < 0.1 µM | > 10 µM | Cc1cc(-c2ccc3nc(N)oc3c2)cn2c(C(=O)N3CCOCC3)cnc12 [Compound 449] |
| < 10 µM | > 10 µM | > 10 µM | > 10 µM | CNS(=O)(=O)c1cncc(-c2ccc3ncc(C(=O)N4CCOCC4)n3c2)c1 [Compound 450] |
| < 10 µM | > 10 µM | < 10 µM | > 10 µM | O=C(c1cnc2ccc(-c3cccc(NS(=O)(=O)c4ccccc4)c3)cn12)N1CCOCC1 [Compound 453] |

| Structure (SMILES) | IC50 (PI3K α (p110α/p85α)) | IC50 (PI3K β (p110β/p85α)) | IC50 (PI3K γ (p110γ)) | IC50 (PI3K δ) |
| --- | --- | --- | --- | --- |
| Nc1nc2cc(-c3ccc4ncc(N5CCNC(C(F)F)C5)nc4c3)ccc2o1 (stereo not drawn) [Compound 413] | < 0.1 µM | < 1 µM | < 1 µM | < 10 µM |
| COc1ncc(-c2ccc3ncc(C(=O)N4CCOCC4)n3c2)cc1NS(=O)(=O)c1ccc(F)cc1 [Compound 421] | < 0.1 µM | < 1 µM | < 0.1 µM | < 0.1 µM |
| CNS(=O)(=O)c1cccc(-c2ccc3ncc(C(=O)N4CCOCC4)n3c2)c1 [Compound 442] | > 10 µM | > 10 µM | > 10 µM | > 10 µM |
| CS(=O)(=O)Nc1cccc(-c2ccc3ncc(C(=O)N4CCOCC4)n3c2)c1 [Compound 443] | > 10 µM | > 10 µM | > 10 µM | > 10 µM |
